Results taken from ChEMBL document CHEMBL1155372, “Design and synthesis of novel deoxybenzoin derivatives as FabH inhibitors and anti-inflammatory agents” (Bioorg Med Chem Lett, 2010).
Values after ≈ are worked out from the molar mass of the structure shown.

Columns and labels:
Bacillus subtilis = test: Antibacterial activity against Bacillus subtilis ATCC 6633; assay type: functional
Candida albicans = test: Antifungal activity against Candida albicans ATCC 10231; assay type: functional
Staphylococcus aureus = test: Antibacterial activity against Staphylococcus aureus ATCC 6538; assay type: functional
Escherichia coli = test: Antibacterial activity against Escherichia coli ATCC 35218; assay type: functional
Aspergillus niger = test: Antifungal activity against Aspergillus niger ATCC 16404; assay type: functional
Pseudomonas aeruginosa = test: Antibacterial activity against Pseudomonas aeruginosa ATCC 2785; assay type: functional
Trichophyton rubrum = test: Antifungal activity against Trichophyton rubrum ATCC 10218
[1] = Inhibition of Escherichia coli FabH expressed after 25 mins by liquid scintillation counting

SMILES	MIC (Bacillus subtilis) [µg/mL]	MIC (Candida albicans) [µg/mL]	MIC (Staphylococcus aureus) [µg/mL]	MIC (Escherichia coli) [µg/mL]	MIC (Aspergillus niger) [µg/mL]	MIC (Pseudomonas aeruginosa) [µg/mL]	MIC (Trichophyton rubrum) [µg/mL]	IC50 [1] [µM]
Oc1ccc(/C(Cc2ccc(Cl)cc2)=N\c2ccc(Br)cc2)cc1O	25 (≈ 60 µM)	> 50	25 (≈ 60 µM)	12.5 (≈ 30 µM)	> 50	12.5 (≈ 30 µM)	> 50	–
O=C(Cc1ccc(F)cc1)c1ccc(O)c(O)c1O	–	> 50	–	–	> 50	–	> 50	–
O=[N+]([O-])c1ccc(/N=C(/Cc2ccc(F)cc2)c2ccc(O)c(O)c2)cc1	50 (≈ 136 µM)	> 50	50 (≈ 136 µM)	25 (≈ 68.2 µM)	> 50	25 (≈ 68.2 µM)	> 50	–
Oc1ccc(/N=C(/Cc2ccc(F)cc2)c2ccc(O)cc2O)cc1	50 (≈ 148 µM)	> 50	25 (≈ 74.1 µM)	12.5 (≈ 37.1 µM)	> 50	25 (≈ 74.1 µM)	> 50	–
Cc1ccc(/N=C(/Cc2ccc(Cl)cc2)c2ccc(O)c(O)c2)cc1	50 (≈ 142 µM)	> 50	50 (≈ 142 µM)	25 (≈ 71.1 µM)	> 50	50 (≈ 142 µM)	> 50	–
O=[N+]([O-])c1ccc(/N=C(/Cc2ccc(Cl)cc2)c2ccc(O)c(O)c2O)cc1	50 (≈ 125 µM)	> 50	50 (≈ 125 µM)	50 (≈ 125 µM)	> 50	50 (≈ 125 µM)	> 50	–
Oc1ccc(/C(Cc2ccc(Cl)cc2)=N\c2ccc(Cl)cc2)c(O)c1O	50 (≈ 129 µM)	> 50	50 (≈ 129 µM)	12.5 (≈ 32.2 µM)	> 50	25 (≈ 64.4 µM)	> 50	–
O=[N+]([O-])c1ccc(/N=C(/Cc2ccc(Cl)cc2)c2ccc(O)cc2O)cc1	25 (≈ 65.3 µM)	> 50	12.5 (≈ 32.7 µM)	6.25 (≈ 16.3 µM)	> 50	6.25 (≈ 16.3 µM)	> 50	8.7
Oc1ccc(/C(Cc2ccc(F)cc2)=N\c2ccc(Br)cc2)c(O)c1O	25 (≈ 60.1 µM)	> 50	25 (≈ 60.1 µM)	25 (≈ 60.1 µM)	> 50	25 (≈ 60.1 µM)	> 50	–
O=[N+]([O-])c1ccc(/N=C(/Cc2ccc(F)cc2)c2ccc(O)cc2O)cc1	50 (≈ 136 µM)	> 50	50 (≈ 136 µM)	6.25 (≈ 17.1 µM)	> 50	12.5 (≈ 34.1 µM)	> 50	28.7
O=C(Cc1ccc(Cl)cc1)c1ccc(O)c(O)c1O	–	> 50	–	–	> 50	–	> 50	–
Oc1ccc(/C(Cc2ccc(F)cc2)=N\c2ccc(Cl)cc2)c(O)c1	50 (≈ 141 µM)	> 50	50 (≈ 141 µM)	1.56 (≈ 4.39 µM)	> 50	1.56 (≈ 4.39 µM)	> 50	3.9
Oc1ccc(/N=C(/Cc2ccc(Cl)cc2)c2ccc(O)cc2O)cc1	25 (≈ 70.7 µM)	> 50	> 50	6.25 (≈ 17.7 µM)	> 50	12.5 (≈ 35.3 µM)	> 50	20.5
Oc1ccc(/N=C(/Cc2ccc(F)cc2)c2ccc(O)c(O)c2O)cc1	50 (≈ 142 µM)	> 50	50 (≈ 142 µM)	25 (≈ 70.8 µM)	> 50	50 (≈ 142 µM)	> 50	63.4
Oc1ccc(/C(Cc2ccc(Cl)cc2)=N\c2ccc(Cl)cc2)cc1O	50 (≈ 134 µM)	> 50	50 (≈ 134 µM)	6.25 (≈ 16.8 µM)	> 50	6.25 (≈ 16.8 µM)	> 50	–
O=C(Cc1ccc(Cl)cc1)c1ccc(O)cc1O	–	> 50	–	–	> 50	–	> 50	–

SMILES	MIC (Bacillus subtilis) [µg/mL]	MIC (Candida albicans) [µg/mL]	MIC (Staphylococcus aureus) [µg/mL]	MIC (Escherichia coli) [µg/mL]	MIC (Aspergillus niger) [µg/mL]	MIC (Pseudomonas aeruginosa) [µg/mL]	MIC (Trichophyton rubrum) [µg/mL]	IC50 [1] [µM]
Cc1ccc(/N=C(/Cc2ccc(F)cc2)c2ccc(O)c(O)c2)cc1	25 (≈ 74.5 µM)	> 50	12.5 (≈ 37.3 µM)	25 (≈ 74.5 µM)	> 50	50 (≈ 149 µM)	> 50	–
O=C(Cc1ccc(F)cc1)c1ccc(O)cc1O	–	> 50	–	–	> 50	–	> 50	–
O=[N+]([O-])c1ccc(/N=C(/Cc2ccc(Cl)cc2)c2ccc(O)c(O)c2)cc1	25 (≈ 65.3 µM)	> 50	12.5 (≈ 32.7 µM)	25 (≈ 65.3 µM)	> 50	25 (≈ 65.3 µM)	> 50	–
Oc1ccc(/C(Cc2ccc(F)cc2)=N\c2ccc(Cl)cc2)c(O)c1O	50 (≈ 134 µM)	> 50	50 (≈ 134 µM)	12.5 (≈ 33.6 µM)	> 50	12.5 (≈ 33.6 µM)	> 50	–
O=C(Cc1ccc(Cl)cc1)c1ccc(O)c(O)c1	–	> 50	–	–	> 50	–	> 50	–
Cc1ccc(/N=C(/Cc2ccc(Cl)cc2)c2ccc(O)c(O)c2O)cc1	25 (≈ 68 µM)	> 50	25 (≈ 68 µM)	50 (≈ 136 µM)	> 50	50 (≈ 136 µM)	> 50	–
NC[C@H]1O[C@H](O[C@H]2[C@H](O)[C@@H](O[C@H]3O[C@H](CO)[C@@H](O)[C@H](N)[C@H]3O)[C@H](N)C[C@@H]2N)[C@H](N)[C@@H](O)[C@@H]1O [BEKANAMYCIN]	0.39 (≈ 0.807 µM)	–	1.56 (≈ 3.23 µM)	3.12 (≈ 6.46 µM)	–	3.12 (≈ 6.46 µM)	–	–
Oc1ccc(/C(Cc2ccc(Cl)cc2)=N\c2ccc(Br)cc2)c(O)c1O	50 (≈ 116 µM)	> 50	50 (≈ 116 µM)	12.5 (≈ 28.9 µM)	> 50	25 (≈ 57.8 µM)	> 50	–
O=[N+]([O-])c1ccc(/N=C(/Cc2ccc(F)cc2)c2ccc(O)c(O)c2O)cc1	50 (≈ 131 µM)	> 50	25 (≈ 65.4 µM)	25 (≈ 65.4 µM)	> 50	25 (≈ 65.4 µM)	> 50	–
Oc1ccc(/N=C(/Cc2ccc(F)cc2)c2ccc(O)c(O)c2)cc1	25 (≈ 74.1 µM)	> 50	50 (≈ 148 µM)	50 (≈ 148 µM)	> 50	50 (≈ 148 µM)	> 50	–
Oc1ccc(/C(Cc2ccc(F)cc2)=N\c2ccc(Cl)cc2)cc1O	25 (≈ 70.3 µM)	> 50	25 (≈ 70.3 µM)	6.25 (≈ 17.6 µM)	> 50	6.25 (≈ 17.6 µM)	> 50	–
Oc1ccc(/N=C(/Cc2ccc(Cl)cc2)c2ccc(O)c(O)c2)cc1	50 (≈ 141 µM)	> 50	50 (≈ 141 µM)	25 (≈ 70.7 µM)	> 50	50 (≈ 141 µM)	> 50	–
Oc1ccc(/C(Cc2ccc(F)cc2)=N\c2ccc(Br)cc2)cc1O	25 (≈ 62.5 µM)	> 50	50 (≈ 125 µM)	12.5 (≈ 31.2 µM)	> 50	25 (≈ 62.5 µM)	> 50	–
CC1(C)S[C@@H]2[C@H](NC(=O)Cc3ccccc3)C(=O)N2[C@H]1C(=O)O [PENICILLIN G]	1.56 (≈ 4.67 µM)	–	1.56 (≈ 4.67 µM)	6.25 (≈ 18.7 µM)	–	6.25 (≈ 18.7 µM)	–	–
O=C(Cc1ccc(F)cc1)c1ccc(O)c(O)c1	–	> 50	–	–	> 50	–	> 50	–
Oc1ccc(/N=C(/Cc2ccc(Cl)cc2)c2ccc(O)c(O)c2O)cc1	50 (≈ 135 µM)	> 50	25 (≈ 67.6 µM)	25 (≈ 67.6 µM)	> 50	50 (≈ 135 µM)	> 50	–
